Results published in patent publication US10501800B2, “Breast cancer prognosis” (Regents of the University of Minnesota, priority 2012, dated 2019).
Entries after “also recorded” stand apart in the source; their conditions may differ.

Legend:
[1] = system: PR target genes in T47D cells expressing WT PR, SUMO-deficient PR (KR) or empty vector; test: Gene expression profiling (Illumina HT-12v4) of T47D cell lines treated with progesterone or antiprogestins; type: cell-based, human; conditions: for expression of progesterone-regulated PR target genes: T47D cells expressing SUMO-deficient PR (KR), antiprogestin 10^−7 M alone or plus progesterone 10^−8 M
Protocol: T47D cells stably expressing pIRES-neo3 empty vector, WT or KR PR were serum starved in modified IMEM (Gibco, catalog #A10488) for 1 day, treated with R5020 (10^−8 M) or vehicle control for 6 h before RNA extraction using a RNeasy kit (QIAgen, catalog #74104). Six h of progestin treatment allowed for substantial PR-dependent gene expression as compared to prior studies (Jacobsen et al., 2005; Richer et al., 2002). DNase I treated (QIAgen, catalog #79254) RNA samples from duplicate experiments were prepared for expression analysis using the Illumina HT-12v4 bead chip platform according to manufacture's protocols. Data were analyzed within R software using the Bioconductor (Gentleman et al., 2004) package called lumi where raw intensities were log2 transformed and quantile normalized. Differentially expressed genes were analyzed using the limma package, where empirical Bayes was used to better estimate the variance of the genes. Gene expression data presented contain log2 normalized intensities and biological comparisons presented (e.g. R5020/vehicle) contain log2 fold change with the Benjamini and Hochberg (BH) adjusted P value (Benjamini and Hochberg, 1995). To generate the heat map in FIG. 1C, unsupervised hierarchical clustering of genes was carried out using heatmap. 2 function in the R package gplots. Clustering was performed using Euclidean distance and complete linkage. Rows were scaled to have mean zero and standard deviation equal to one.
Gene expression profiles in T47D cell lines treated with antiprogestins were obtained using identical methods as described above, except for these notable differences. After serum starvation, cells stably expressing empty vector, WT, or KR PR were treated for 6 hours under one of eight possible conditions: (1) ethanol (vehicle control), (2) progesterone (10^−8 M), (3) RU486 (10^−7 M), (4) aglepristone (10^−7 M), (5) onapristone (10^−7 M), (6) RU486 (10^−7 M) plus progesterone (10^−8 M), (7) aglepristone (10^−7 M) plus progesterone (10^−8 M), or (8) onapristone (10^−7 M) plus progesterone (10^−8 M). Gene expression levels were measured, normalized, analyzed, and heat maps were generated using the methods described above.
Raw microarray data from two independent microarray experiments (both performed using the Illumina HT-12v4 platform described above) were combined and normalized together within R software using the Bioconductor (Gentleman et al., 2004) package called lumi where raw intensities were log 2 transformed and quantile normalized.
Sample Sizes & Composition: For the first analysis, two KR cell replicates were used that had been stimulated with R5020 a synthetic progestin in the first experiment and three KR cell replicates that had been stimulated with progesterone in the second experiment. The same was accomplished regarding the corresponding WT cell replicates. Pertaining to the first analysis, therefore, a sample size of n=5 was used for each of the two groups (KR & WT). Regarding the second analysis, we used three KR cell replicates that had been co-treated with progesterone plus onapristone in the second experiment; and we used three WT cell replicates that had been co-treated with progesterone plus onapristone also in the second experiment (n=3 for each of the two groups). Regarding the third analysis, we used three KR cell replicates that had been co-treated with progesterone plus RU486 in the second experiment; and we used three WT cell replicates that had been co-treated with progesterone plus RU486 also in the second experiment (n=3 for each of the two groups). Regarding the fourth analysis, three KR cell replicates was used that had been co-treated with progesterone plus onapristone; and three WT cell replicates were used that had been treated with vehicle control (ethanol) (n=3 for each of the two groups). […]

[2] = system: PR target genes (CHN2, RGS2, ACOT6) in BT-474 human breast cancer cells; test: RT-qPCR of PR target genes in BT-474 cells, with or without MEK inhibitor; type: cell-based
Protocol: For reverse transcription quantitative polymerase chain reaction (RT-qPCR) assays, 5×10^5 cells/well were plated in 6-well dishes, serum starved in modified IMEM for 1 day before treatments (see individual figures). RNA was extracted using TriPure reagent (Roche, catalog #11667157001) and cDNA was created using the Transcriptor cDNA first-strand cDNA synthesis kit (Roche, catalog #04897030001). Relative expression levels were determined by qPCR assays performed on a Roche LightCycler II using SYBR green master-mix (Roche, catalog #04887352001). Target gene quantification levels were normalized to the expression of standard housekeeper genes: TBP, ACTB, and/or GAPDH. For cells expressing inducible PR, the protocol was the same as above, except prior to ligand treatments, the cells were induced with AP21967 (10^−9 M) for 2 d.
For experiments using MEK inhibitors, BT-474 cells were plated in […] dishes at 5×10^5 cells/well. One day later, the cells were washed and serum starved in modified IMEM for 1d. These cells were pre-treated with the MEK inhibitor U0126 (5 uM, EMD Chemicals, catalog #662005) for 30 min R5020 (10^−8 M) and/or RU486 (10^−7 M) was then added to cell culture wells for 6 h before RNA/protein isolation and RT-qPCR/western blotting was performed, as described above.

[3] = system: PR Ser294 phosphorylation; test: Western blotting for PR Ser294 phosphorylation in BT-474 cells; type: cell-based, human
Protocol: (§1) T47Dco parental cell lines were characterized previously (Horwitz et al., 1982). T47D cells stably expressing PR were created by molecular cloning of cDNAs encoding either WT, K388R, S294A, or K388R/S294A PR into a pIRES-neo3 expression vector (Clontech, catalog #631621), followed by transfection of vectors into T47D-Y cells (Sartorius et al., 1994) using FuGENE HD (Roche, catalog #04709713001). Single-cell clones were expanded under high G418 selection (500 ug/ml) and maintained in low G418 selection (200 ug/ml) (EMD Chemicals, catalog #345810). These cells were maintained in complete minimal essential medium (cMEM) supplemented with 5% fetal bovine serum (FBS), 1% non-essential amino acids (NEAA), 1% penicillin/streptomycin, 6 ng/ml insulin (CellGro, catalog #10-010-CV). T47D cells expressing inducible PR were described previously (Hagan et al., 2011). Inducible PR expression was achieved by adding AP21967 (10^−9 M, Ariad Pharmaceuticals, Cambridge, Mass.) to cell culture medium for a minimum treatment time of 2 d. MCF-7 cell lines expressing PR were created by transfection of pIRES-neo3 vectors containing cDNA inserts encoding either WT or KR PR into cells using FuGENE HD. Single-cell clones were expanded under high G418 selection and maintained in low G418 selection. […]

[4] = system: RGS2 expression in T47D cells expressing WT PR or KR PR; test: RT-qPCR of PR target genes in T47D cells stably expressing WT or KR PR; type: cell-based, human; conditions: R5020 6 h
Protocol: as §1, with “2011).” for “2011). Inducible PR expression was achieved by adding AP21967 (10^−9 M, Ariad Pharmaceuticals, Cambridge, Mass.) to cell culture medium for a minimum treatment time of 2 d. MCF-7 cell lines expressing PR were created by transfection of pIRES-neo3 vectors containing cDNA inserts encoding either WT or KR PR into cells using FuGENE HD. Single-cell clones were expanded under high G418 selection and maintained in low G418 selection.”
For reverse transcription quantitative polymerase chain reaction (RT-qPCR) assays, 5×10^5 cells/well were plated in 6-well dishes, serum starved in modified IMEM for 1 day before treatments (see individual figures). […] Relative expression levels were determined by qPCR assays performed on a Roche LightCycler II using SYBR green master-mix (Roche, catalog #04887352001). Target gene quantification levels were normalized to the expression of standard housekeeper genes: TBP, ACTB, and/or GAPDH. […]

[5] = system: T47D cells expressing inducible PR (iWT, iKR); test: MTT proliferation assay in T47D cells expressing inducible PR; type: cell-based, human; conditions: cells expressing iWT or iKR PRs vs un-induced or untreated counterparts; R5020
Protocol: Cell proliferation was measured using MTT assays (3-[4,5-dimethylthiazol-2-yl]-2,5-diphenyltetrazolium bromide, Sigma catalog #M2128). In 24-well plates, 1×10^4 cells/well were plated in cMEM (inducible PR expression was induced with AP21967 (10^−9 M) for 2 days), cells were washed and steroid starved in modified IMEM supplemented with 5% dextran-coated charcoal-treated (DCC) FBS for 1 day before the addition of R5020 (10^−8 M). At days 0, 2, 4, 6, cell proliferation was determined by adding 60 ul MTT (5 mg/ml) to each 0.5 ml cell culture well for 3 hours, medium was carefully removed and solublization solution (90% v/v DMSO/PBS) was added to lyse the cells. Lysate absorbance (650 and 570 nm) was measured using a plate reader. 650 nm measurements were subtracted from 570 nm measurements and sample means were normalized to day zero.

[6] = system: MAP1A and RGS2 mRNA in T47D cells stably expressing WT PR; test: RT-qPCR with epidermal growth factor (EGF) treatment in T47D cells expressing WT PR; type: cell-based, human
Protocol: For RT-qPCR assays involving epidermal growth factor (EGF) treatment, cells were plated at 5×10^5 cells/well in 6-well dishes and serum starved for 2 days in modified IMEM. Cells were pre-treated with 100 ng/ml EGF (Sigma, catalog #E9644) before treatment with R5020 (10^−8 M).

PR protein expression = test: Western blotting for PR in doxorubicin-treated T47D cells expressing inducible PR (PARP cleavage assay); type: cell-based, human; conditions: doxorubicin 8 uM, 24 h
Protocol: Poly (ADP)-ribose polymerase 1 (PARP) cleavage assays were used to measure the level of apoptosis in cell cultures after treatment with cytotoxic concentrations of doxorubicin. T47D cells expressing inducible PR were plated in 10 cm dishes (2×10^6 cells/dish) in cMEM and induced with AP21967 (10^−9 M). Cells were washed, induced, and serum starved for 4 d. Cells were then treated with R5020 (10^−8M) for 6 h before adding doxorubicin (8 uM) to dishes for 24 h. Protein was harvested using standard RIPA lysis buffer, subjected to SDS-PAGE and western blotting using cleaved-PARP and PR antibodies. Beta-actin western blotting was performed for sample loading controls.

[7] = pre-treatment with U0126 5 uM for 30 min

## CC(=O)[C@H]1CC[C@H]2[C@@H]3CCC4=CC(=O)CC[C@]4(C)[C@H]3CC[C@]12C [progesterone]
[1]; both WT and KR cells, progesterone 10^−8 M, 6 h
  gene expression after progesterone (P4) treatment: significantly upregulated

## C/C=C\[C@]1(O)CC[C@H]2[C@@H]3CCC4=CC(=O)CCC4=C3[C@@H](c3ccc(N(C)C)cc3)C[C@@]21C [aglepristone, (8S,11R,13S,14S,17R)-11-(4-dimethylaminophenyl)-17-hydroxy-13-methyl-17-[(Z)-prop-1-enyl]-1,2,6,7,8,11,12,14,15,16-decahydrocyclopenta[a]phenanthren-3-one]
[1]; 6 h
  expression of progesterone-regulated PR target genes: caused many PR target genes to become upregulated
[1]; cells expressing hyperactive / SUMO-deficient PR (KR)
  agonistic activity: substantial agonistic activity; also recorded: agonistic properties

## CN(C)c1ccc([C@H]2C[C@]3(C)[C@@H](CC[C@]3(O)CCCO)[C@@H]3CCC4=CC(=O)CCC4=C32)cc1 [onapristone, (8S,11R,13R,14S,17S)-11-[4-(dimethylamino)phenyl]-17-hydroxy-17-(3-hydroxypropyl)-13-methyl-1,2,6,7,8,11,12,14,15,16-decahydrocyclopenta[a]phenanthren-3-one]
[1]; KR cells, onapristone alone
  number of the 29 KR>WT genes stimulated by onapristone treatment alone: none
[1]; KR cells, onapristone plus P4
  number of the 29 KR>WT genes stimulated by onapristone plus P4 treatment: 13 genes
[1]; KR treated with onapristone plus progesterone, WT treated with vehicle control
  number of genes significantly differentially expressed, KR cells (onapristone plus progesterone) vs WT cells (ethanol): 5 genes
[1]; 6 h
  expression of progesterone-regulated PR target genes: did not cause these PR target genes to be upregulated; also recorded: do not stimulate gene expression
[1]; WT cells
  number of genes significantly differentially expressed, WT cells (progesterone plus onapristone) vs WT cells (ethanol): only one gene
[1]; both cell lines co-treated with progesterone plus the antiprogestin
  number of genes significantly differentially expressed between KR and WT cells: 8 genes
[1]; both cell lines co-treated with progesterone plus the antiprogestin, with the exception of one gene (CDH10)
  significant differential expression of the 15 biomarker genes between KR and WT cells: completely annulled
[1]; cells expressing WT or KR PR
  antagonist activity: effective antagonist
[1]; cells expressing activated PR (KR), onapristone in the presence of progesterone
  reversal of the effects of progesterone exposure: can effectively reverse
[1]; cells that express hyperactive PR (phosphorylated and deSUMOylated; KR)
  inhibition of expression of PR target genes: can successfully inhibit
[1]; cells with a WT PR receptor, progesterone plus onapristone
  reversal of transcriptional differences induced by progesterone: almost completely reverse

## CCC(=O)[C@@]1(C)CC[C@H]2[C@@H]3CCC4=CC(=O)CCC4=C3CC[C@@]21C [R5020]
[2]; R5020 10^−8 M, 6 h
  ACOT6 expression: induced
  upregulation of CHN2 mRNA: 17 fold
  upregulation of RGS2 mRNA: 26 fold
[3]; R5020 treatment
  PR-B Ser294 phosphorylation: elevated
[4]; T47D cells expressing KR PR
  RGS2 expression response to R5020: ~20 fold
[4]; T47D cells expressing WT PR
  RGS2 expression response to R5020: ~2 fold
[5]
  cell growth: grew faster

## EGF: epidermal growth factor (Sigma) (NSDSECPLSHDGYCLHDGVCMYIEALDKYACNCVVGYIGERCQYRDLKWWELR; Epidermal growth factor; UniProt P01133 971-1023, looked up)
[6]; EGF alone (100 ng/ml) over a 2-day time course
  MAP1A and RGS2 mRNA expression: insensitive
[6]; EGF pre-treatment (100 ng/ml) followed by R5020 10^−8 M
  progestin stimulated mRNA expression of MAP1A and RGS2: significantly augmented

## N#CC(=C(/N)Sc1ccccc1N)/C(C#N)=C(\N)Sc1ccccc1N [U0126]
[2]; MEK kinase inhibition, U0126 5 uM
  R5020-induced ACOT6 expression (control gene): completely insensitive
[2]; [7]
  R5020-induced CHN2 and RGS2 expression: partially, but significantly, diminished
[3]; [7]
  R5020-induced PR Ser294 phosphorylation: blocked

## COc1cccc2c1C(=O)c1c(O)c3c(c(O)c1C2=O)C[C@@](O)(C(=O)CO)C[C@@H]3O[C@H]1C[C@H](N)[C@H](O)[C@H](C)O1 [Doxorubicin, doxorubicin]
PR protein expression
  WT and KR PR protein expression: reduced
